Some test systems named below: ACHN; HCC 2998; HCT-116; HCT-15; HT-29; IGROV-1; MDA-MB-435; Malme-3M; NCI-H522; NCI/ADR-RES; RPMI-8226; SK-MEL-28; SK-MEL-5; T47D; U-251; UACC-257; RXF 393; SF-539; SNB-75.
What all share (experiment): inhibition of tumour cell growth, NCI panel, 48 h

The values that follow come from ChEMBL document CHEMBL1201862, “PubChem BioAssay data set” (2004).

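Interpolation was linear, between the two tested concentrations surrounding the appropriate level; five concentrations were tested over 48 hours in 96-well plates. Abbreviation: GI50, concentration required for 50% inhibition of growth.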 Active and inactive are the calls of the source. Rule as the data show it: active = GI50 up to about 1.1 µM and inactive = higher.

`CC(C)(C)OC(=O)NCCc1ccc(N)cc1`: the GI50 in the assay on ACHN is > 100 µM (inactive); in the assay with HCC 2998, > 100 µM (inactive); in the assay on HCT-116 it was > 100 µM (inactive); in the assay on HCT-15, greater than 100 µM; in the assay with HT-29, > 100 µM (inactive); in the assay with IGROV-1, > 100 µM (inactive). The GI50 is > 100 µM (inactive) in the assay with MDA-MB-435; > 100 µM (inactive) in the assay on Malme-3M; > 100 µM (inactive) in the assay with NCI-H522; 32.4 µM (inactive) with NCI/ADR-RES; 58.6 µM (inactive) in the assay with RPMI-8226; > 100 µM (inactive) with SK-MEL-28. The GI50 is 33 µM (inactive) with SK-MEL-5, 74.5 µM (inactive) in the assay on T47D, 30.8 µM (inactive) in the assay on U-251 and 72.8 µM (inactive) in the assay with UACC-257.

On to `CCCC(=O)OCC1OC(n2ccc(N)nc2=O)C(OC(=O)CCC)C1OC(=O)CCC` (stereo not drawn), for which the GI50 in the assay with HCC 2998 was > 100 µM (inactive); with HCT-116, 33.3 µM (inactive); in the assay with HCT-15, 72.4 µM; in the assay with HT-29, 99.3 µM (inactive); in the assay with IGROV-1, > 63 µM (inactive); in the assay with Malme-3M, > 21.2 µM (inactive). Besides, the GI50 in the assay with NCI-H522 is 10.6 µM (inactive); with NCI/ADR-RES, 68.9 µM (inactive); with RPMI-8226, > 100 µM (inactive); with RXF 393, > 58.7 µM (inactive); with SF-539 it was 77.3 µM (inactive); in the assay on SK-MEL-28, 15.1 µM (inactive). Further, the GI50 in the assay on SK-MEL-5 was > 86.5 µM (inactive); in the assay with SNB-75, > 48.9 µM (inactive); in the assay with U-251 it was 35 µM (inactive); with UACC-257, > 31.7 µM (inactive).

Take `CC1C[C@]2(C)C(=S)Nc3ccccc3[C@@H]2Nc2ccccc21` (stereo partly drawn): the GI50 with ACHN was 19.3 µM (inactive); in the assay with HCC 2998 it was 22.2 µM (inactive); in the assay with HCT-116, 12.6 µM (inactive); with HCT-15 it was 21.6 µM; in the assay on HT-29 it was 11.9 µM (inactive); in the assay on IGROV-1 it was 18.3 µM (inactive). Besides, the GI50 in the assay on MDA-MB-435 is 14.9 µM (inactive); with Malme-3M it was 15.9 µM (inactive); in the assay on NCI/ADR-RES it was 18.5 µM (inactive); in the assay on RPMI-8226, 23.4 µM (inactive); with RXF 393 it was 19 µM (inactive); in the assay on SF-539, 19.3 µM (inactive). In addition, the GI50 with SK-MEL-28 was 0.39 µM (active); with SK-MEL-5, 17.7 µM (inactive); with SNB-75 it was 13.9 µM (inactive); in the assay with T47D it was 17.9 µM (inactive); in the assay on UACC-257 it was 15.6 µM (inactive).

Regarding `CC(=O)N1NC(c2ccccc2)=CC(=O)/C1=C/C(=O)c1ccccc1`, the GI50 is 77.3 µM (inactive) in the assay with ACHN; > 100 µM (inactive) in the assay with HCC 2998; 62.2 µM (inactive) with HCT-116; 70.8 µM in the assay with HCT-15; > 100 µM (inactive) in the assay on HT-29; 34.3 µM (inactive) in the assay with IGROV-1. Further, the GI50 in the assay with MDA-MB-435 was 20.2 µM (inactive); in the assay with Malme-3M, 37.6 µM (inactive); in the assay on NCI-H522, 15.9 µM (inactive); with NCI/ADR-RES, 50.4 µM (inactive); with RPMI-8226 it was 31.3 µM (inactive); with RXF 393, 24.2 µM (inactive). Besides, the GI50 in the assay on SF-539 was 32.1 µM (inactive); in the assay with SK-MEL-28, > 100 µM (inactive); in the assay with SK-MEL-5 it was 47.8 µM (inactive); with T47D, 39.3 µM (inactive); in the assay on U-251, > 100 µM (inactive); with UACC-257, > 100 µM (inactive).

Take `CC(C)Cc1ccc(C(C)C(=O)N2CCN(/C=C/c3ccccc3)CC2)cc1` (stereo not drawn): the GI50 with HCC 2998 was 17.9 µM (inactive); in the assay with HCT-116 it was 13.4 µM (inactive); with HCT-15, 13.8 µM; in the assay on HT-29, 14.7 µM (inactive); in the assay on IGROV-1, 15.1 µM (inactive); with Malme-3M, 16.3 µM (inactive). Moreover, the GI50 in the assay with NCI-H522 was 11.6 µM (inactive); in the assay on NCI/ADR-RES, 13.1 µM (inactive); in the assay with RPMI-8226, 5.04 µM (inactive); in the assay on RXF 393 it was 14.1 µM (inactive); in the assay on SF-539 it was 15.2 µM (inactive); in the assay on SK-MEL-28 it was 17.7 µM (inactive). The GI50 in the assay on SK-MEL-5 was 12.1 µM (inactive); in the assay on SNB-75, 14 µM (inactive); in the assay on U-251, 12.9 µM (inactive); with UACC-257 it was 17.3 µM (inactive).

On to `COC(=O)c1ccc(/N=N/N(C)COc2ccc(Br)cc2)cc1`, for which the GI50 in the assay with HCC 2998 was 31.7 µM (inactive); in the assay with HCT-116, > 100 µM (inactive); with HCT-15 it was greater than 89.7 µM; in the assay with HT-29, 49.3 µM (inactive); in the assay with IGROV-1, > 100 µM (inactive); with Malme-3M, > 100 µM (inactive). The GI50 in the assay with NCI-H522 is 43.5 µM (inactive); in the assay on NCI/ADR-RES, > 100 µM (inactive); with RPMI-8226, 24.5 µM (inactive); in the assay with RXF 393, 80.4 µM (inactive); with SF-539, > 100 µM (inactive); with SK-MEL-28 it was > 100 µM (inactive). For the same compound, the GI50 was 55.3 µM (inactive) with SK-MEL-5, 57.3 µM (inactive) with SNB-75, > 71.3 µM (inactive) in the assay with U-251 and > 71.8 µM (inactive) in the assay with UACC-257.

Regarding `CC1(C)O[C@H]2OC(CO)C(N=[N+]=[N-])[C@H]2O1` (stereo partly drawn), the GI50 in the assay with ACHN was > 100 µM (inactive); in the assay on HCC 2998, > 100 µM (inactive); in the assay on HCT-116, > 100 µM (inactive); in the assay on HCT-15, greater than 100 µM; in the assay on HT-29, > 100 µM (inactive); in the assay on IGROV-1 it was > 100 µM (inactive). Besides, the GI50 with MDA-MB-435, in the assay on Malme-3M, in the assay on NCI-H522, with NCI/ADR-RES, in the assay with RPMI-8226 and in the assay with SF-539 was > 100 µM (inactive) in each case. Besides, the GI50 in the assay on SK-MEL-28, in the assay on SK-MEL-5, in the assay on SNB-75, in the assay with T47D, in the assay with U-251 and in the assay on UACC-257 was > 100 µM (inactive) in each case.

Consider `CC1S(=O)(=O)OCCOS1(=O)=O`, for which the GI50 in the assay with ACHN is 46.5 µM (inactive); with HCC 2998, > 100 µM (inactive); in the assay on HCT-116 it was > 95.7 µM (inactive); in the assay with HCT-15, greater than 100 µM; in the assay with HT-29 it was > 100 µM (inactive); in the assay on IGROV-1, > 100 µM (inactive). In addition, the GI50 is > 100 µM (inactive) in the assay on Malme-3M; > 78 µM (inactive) in the assay on NCI-H522; > 100 µM (inactive) with RPMI-8226; > 73.5 µM (inactive) in the assay on RXF 393; 46.6 µM (inactive) with SF-539; > 100 µM (inactive) in the assay with SK-MEL-28. Further, the GI50 in the assay on SK-MEL-5 was 50.1 µM (inactive); in the assay with SNB-75, 67.9 µM (inactive); in the assay on U-251, 28.8 µM (inactive); in the assay on UACC-257 it was > 94.2 µM (inactive).

Take `CC1(C)[C@@H](Cn2cnc3c(O)nc(N)nc32)CC[C@@]1(C)CO`: the GI50 in the assay with ACHN was > 100 µM (inactive); with HCC 2998, > 100 µM (inactive); in the assay on HCT-116 it was > 100 µM (inactive); with HCT-15 it was greater than 100 µM; in the assay on MDA-MB-435, > 100 µM (inactive); with NCI/ADR-RES, > 100 µM (inactive). The GI50 with RPMI-8226, in the assay on RXF 393, in the assay on SF-539, in the assay on SK-MEL-28, in the assay on SK-MEL-5 and with SNB-75 was > 100 µM (inactive) each time. The GI50 in the assay on T47D, in the assay on U-251 and with UACC-257 was > 100 µM (inactive) throughout.
